# Results: PubChem BioAssay AID2060512 (Molecular Pharmacology Branch, DTP, NCI, 2025)
# System: 186277-243-T-J2-PDC complex spheroid viability
# Test: Anticancer human tumor 186277-243-T-J2-PDC patient-derived colon adenocarcinoma cell line growth inhibition [GQUAD]
# Conditions: for IC50: curve of first compound; for viability, T/C: stronger effect = lower value
# Procedure, shortened: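 Tumor cells were grown as complex spheroids with HUVEC endothelial cells and mesenchymal stem cells as stroma. G-quadruplex stabilizers were combined with targeted agents over half-log dilutions from near the clinical Cmax, or from 10 microM.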
# [1] = second compound 0.0316 µM, first compound 0.0316 µM
# [2] = second compound 0.0316 µM, first compound 0.1 µM
# [3] = second compound 0.0316 µM, first compound 0.316 µM
# [4] = second compound 0.0316 µM, first compound 1 µM
# [5] = second compound 0.0316 µM, first compound 3.16 µM
# [6] = second compound 0.0316 µM, first compound 10 µM
# [7] = second compound 0.1 µM, first compound 0.0316 µM
# [8] = second compound 0.1 µM, first compound 0.1 µM
# [9] = second compound 0.1 µM, first compound 0.316 µM
# [10] = second compound 0.1 µM, first compound 1 µM
# [11] = second compound 0.1 µM, first compound 3.16 µM
# [12] = second compound 0.1 µM, first compound 10 µM
# [13] = second compound 0.316 µM, first compound 0.0316 µM
# [14] = second compound 0.316 µM, first compound 0.1 µM
# [15] = second compound 0.316 µM, first compound 0.316 µM
# [16] = second compound 0.316 µM, first compound 1 µM
# [17] = second compound 0.316 µM, first compound 3.16 µM
# [18] = second compound 0.316 µM, first compound 10 µM
# [19] = second compound 1 µM, first compound 0.0316 µM
# [20] = second compound 1 µM, first compound 0.1 µM
# [21] = second compound 1 µM, first compound 0.316 µM
# [22] = second compound 1 µM, first compound 1 µM
# [23] = second compound 1 µM, first compound 3.16 µM
# [24] = second compound 1 µM, first compound 10 µM
# [25] = second compound 3.16 µM, first compound 0.0316 µM
# [26] = second compound 3.16 µM, first compound 0.1 µM
# [27] = second compound 3.16 µM, first compound 0.316 µM
# [28] = second compound 3.16 µM, first compound 1 µM
# [29] = second compound 3.16 µM, first compound 3.16 µM
# [30] = second compound 3.16 µM, first compound 10 µM
# [31] = second compound 10 µM, first compound 0.0316 µM
# [32] = second compound 10 µM, first compound 0.1 µM
# [33] = second compound 10 µM, first compound 0.316 µM
# [34] = second compound 10 µM, first compound 1 µM
# [35] = second compound 10 µM, first compound 3.16 µM
# [36] = second compound 10 µM, first compound 10 µM
# 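Also: spheroids exposed to drugs for 7 days.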
# 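For viability, T/C in this document: 100% = DMSO vehicle control viability.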
compound,measurement,setting,value
C#Cc1c(F)ccc2cc(O)cc(-c3ncc4c(N5CC6CCC(C5)N6)nc(OCC56CCCN5CC(F)C6)nc4c3F)c12 (stereo unspecified) + CN(C)c1ccc(Nc2c3ccc(NC(=O)CCN4CCCC4)cc3nc3cc(NC(=O)CCN4CCCC4)ccc23)cc1,IC50,second compound 0.0316 µM,89.9 nM
same,IC50,second compound 0.1 µM,83.6 nM
same,IC50,second compound 0.316 µM,99.7 nM
same,IC50,second compound 1 µM,84.2 nM
same,IC50,second compound 3.16 µM,135 nM
same,IC50,second compound 10 µM,77 nM
same,"viability, T/C",[1],82%
same,"viability, T/C",[2],47.4%
same,"viability, T/C",[3],21.6%
same,"viability, T/C",[4],16.9%
same,"viability, T/C",[5],6.89%
same,"viability, T/C",[6],7.82%
same,"viability, T/C",[7],74.2%
same,"viability, T/C",[8],45.7%
same,"viability, T/C",[9],18.7%
same,"viability, T/C",[10],11.1%
same,"viability, T/C",[11],6.45%
same,"viability, T/C",[12],7.02%
same,"viability, T/C",[13],77%
same,"viability, T/C",[14],50.4%
same,"viability, T/C",[15],19.8%
same,"viability, T/C",[16],14.4%
same,"viability, T/C",[17],8.31%
same,"viability, T/C",[18],7.51%
same,"viability, T/C",[19],74.6%
same,"viability, T/C",[20],46.6%
same,"viability, T/C",[21],21.3%
same,"viability, T/C",[22],16.1%
same,"viability, T/C",[23],14.3%
same,"viability, T/C",[24],6.27%
same,"viability, T/C",[25],73.9%
same,"viability, T/C",[26],59.6%
same,"viability, T/C",[27],22.9%
same,"viability, T/C",[28],8.92%
same,"viability, T/C",[29],8.54%
same,"viability, T/C",[30],5.1%
same,"viability, T/C",[31],74.3%
same,"viability, T/C",[32],42.1%
same,"viability, T/C",[33],24.2%
same,"viability, T/C",[34],12.5%
same,"viability, T/C",[35],6.96%
same,"viability, T/C",[36],1.49%
CC(=O)O[C@H]1C(=O)[C@@]2(C)[C@H]([C@H](OC(=O)c3ccccc3)[C@]3(O)C[C@H](OC(=O)[C@H](O)[C@@H](NC(=O)c4ccccc4)c4ccccc4)C(C)=C1C3(C)C)[C@]1(OC(C)=O)CO[C@@H]1C[C@@H]2O + CN(C)c1ccc(Nc2c3ccc(NC(=O)CCN4CCCC4)cc3nc3cc(NC(=O)CCN4CCCC4)ccc23)cc1,IC50,second compound 0.0316 µM,< 31.6 nM
same,IC50,second compound 0.1 µM,< 31.6 nM
same,IC50,second compound 0.316 µM,< 31.6 nM
same,IC50,second compound 1 µM,< 31.6 nM
same,IC50,second compound 3.16 µM,< 31.6 nM
same,IC50,second compound 10 µM,< 31.6 nM
same,"viability, T/C",[1],19.8%
same,"viability, T/C",[2],6.1%
same,"viability, T/C",[3],5.38%
same,"viability, T/C",[4],3.55%
same,"viability, T/C",[5],3.54%
same,"viability, T/C",[6],3.9%
same,"viability, T/C",[7],18.9%
same,"viability, T/C",[8],7.57%
same,"viability, T/C",[9],4.53%
same,"viability, T/C",[10],3.24%
same,"viability, T/C",[11],4.81%
same,"viability, T/C",[12],4.04%
same,"viability, T/C",[13],20.1%
same,"viability, T/C",[14],7.12%
same,"viability, T/C",[15],4.2%
same,"viability, T/C",[16],4.04%
same,"viability, T/C",[17],4.15%
same,"viability, T/C",[18],3.98%
same,"viability, T/C",[19],11.8%
same,"viability, T/C",[20],7.8%
same,"viability, T/C",[21],5.59%
same,"viability, T/C",[22],3.93%
same,"viability, T/C",[23],4.16%
same,"viability, T/C",[24],4.31%
same,"viability, T/C",[25],19.9%
same,"viability, T/C",[26],6.16%
same,"viability, T/C",[27],3.9%
same,"viability, T/C",[28],4.93%
same,"viability, T/C",[29],4.08%
same,"viability, T/C",[30],4.24%
same,"viability, T/C",[31],19.5%
same,"viability, T/C",[32],6.64%
same,"viability, T/C",[33],3.63%
same,"viability, T/C",[34],3.44%
same,"viability, T/C",[35],2.96%
same,"viability, T/C",[36],2.41%
CCCS(=O)(=O)Nc1ccc(F)c(C(=O)c2c[nH]c3ncc(-c4ccc(Cl)cc4)cc23)c1F + CN(C)c1ccc(Nc2c3ccc(NC(=O)CCN4CCCC4)cc3nc3cc(NC(=O)CCN4CCCC4)ccc23)cc1,IC50,second compound 0.0316 µM,5890 nM
same,IC50,second compound 0.1 µM,6440 nM
same,IC50,second compound 0.316 µM,6240 nM
same,IC50,second compound 1 µM,6270 nM
same,IC50,second compound 3.16 µM,6280 nM
same,IC50,second compound 10 µM,5820 nM
same,"viability, T/C",[1],97.2%
same,"viability, T/C",[2],101%
same,"viability, T/C",[3],90.2%
same,"viability, T/C",[4],78.8%
same,"viability, T/C",[5],77.9%
same,"viability, T/C",[6],30.3%
same,"viability, T/C",[7],95.2%
same,"viability, T/C",[8],81.4%
same,"viability, T/C",[9],83.6%
same,"viability, T/C",[10],84.6%
same,"viability, T/C",[11],95.8%
same,"viability, T/C",[12],26.2%
same,"viability, T/C",[13],89.1%
same,"viability, T/C",[14],102%
same,"viability, T/C",[15],86.3%
same,"viability, T/C",[16],87%
same,"viability, T/C",[17],82.7%
same,"viability, T/C",[18],27.7%
same,"viability, T/C",[19],90.3%
same,"viability, T/C",[20],93.1%
same,"viability, T/C",[21],84.4%
same,"viability, T/C",[22],98.9%
same,"viability, T/C",[23],83%
same,"viability, T/C",[24],26.7%
same,"viability, T/C",[25],92.2%
same,"viability, T/C",[26],105%
same,"viability, T/C",[27],86.5%
same,"viability, T/C",[28],90.4%
same,"viability, T/C",[29],82.5%
same,"viability, T/C",[30],28.4%
same,"viability, T/C",[31],96.9%
same,"viability, T/C",[32],91.1%
same,"viability, T/C",[33],97.9%
same,"viability, T/C",[34],87.7%
same,"viability, T/C",[35],82.3%
same,"viability, T/C",[36],22%
